# What was measured:
# Type in all cases: cell-based
# [1] = system: differentiated dopaminergic PC12 cells exposed to 30 μM 6-OHDA; assay: LIVE/DEAD viability of differentiated PC12 cells exposed to 6-OHDA; conditions: 1 μM for 6 h, then 30 μM 6-OHDA for 24 h
# Method: Differentiated dopaminergic PC12 cells and primary mouse embryonic cortical neurons (E17, DIV14) were treated with mock (H2O) or 1 μM of dextran, alginate, HA-GAGR, or midi-GAGR for 6 h and insulated by oxidative stressors (30 μM 6-OHDA [PC12] and 10 μM amyloid β peptide [cortical neurons]) for 24 h.
# [2] = system: phosphorylated CREB in mouse embryonic cortical neurons; assay: nuclear p-CREB immunostaining in embryonic cortical neurons (Example 2); conditions: 1 μM, 24 h
# Method: Differentiated PC12 cells and mouse embryonic cortical neurons (E17, DIV14) were treated with mock, dextran, alginate, HA-GAGR, or midi-GAGR (1 μM) for 24 h and fixed in 3.7% paraformaldehyde. The fixed cells and neurons were immunostained with antibodies against α-tubulin and phosopho-CREB (p-CREB) along with DAPI (nucleus).
# [3] = system: mouse cortical neurons (E17, DIV5); assay: LIVE/DEAD assay, pre-treatment of mouse cortical neurons before 4HNE, H2O2 or Aβ42; conditions: pre-treatment 24 h (same concentrations)
# Text: The protective effect of polysaccharides on primary cortical neurons from 4HNE, H2O2, and Aβ42 peptide (Sigma) was examined using LIVE/DEAD® Viability/Cytotoxicity Assay Kit (Life Technologies). Female pregnant mice (BALB/C, E17, Charles River Laboratories International, Inc.) or female pregnant SD rats (E17, bred in house) were anesthetized and dissected to obtain 8-9 embryos per animal. Cortical neurons were isolated from embryonic brains and differentiated on poly-L-lysine-coated coverslips in B27/neurobasal medium. For drug treatment before free radical treatment, mouse cortical neurons (5 days in vitro [DIV5]) were treated with vehicle (H2O), 1 μM of 5 kD dextran (Sigma), alginate (Sigma), midi-GAGR, 0.01 μM of high acyl gellan gum (HA-GAGR, CPKelco Co.), or 0.1 μM of LA-GAGR for 24 h and then treated with 10 μM 4HNE or 50 μM H2O2 for 24 h, or 2 μM Aβ42 peptide for 48 h prior to viability/cytotoxicity assay. For drug co-treatment with free radicals, rat cortical neurons (DIV5) were treated with 1 μM of dextran, alginate, or midi-GAGR, 0.01 μM of HA-GAGR, or 0.1 μM of LA-GAGR along with either 10 μM 4HNE (24 h) or 2 μM Aβ42 peptide (48 h). To examine the extent to which midi-GAGR-mediated neuroprotection depends on FGFR1, rat cortical neurons (E17, DIV5) were pre-treated with 4 μM SU5402 (Sigma) for 6 h and treated with 10 μM 4HNE and either vehicle or 1 μM midi-GAGR for 24 h prior to cell viability/cytotoxicity assay. As controls, neurons were treated with SU5402, midi-GAGR, 4HNE, 4HNE plus midi-GAGR, or SU5402 plus midi-GAGR.
# For cell viability/cytotoxicity measurement, neurons on glass coverslips were incubated in 1×PBS containing 2 μM calcein AM (live cells: green) and 4 μM ethidium homodimer-1 (dead cells: red) for 10 min at 37° C. Immediately thereafter, neurons were imaged by 10×objective using a fluorescence Olympus IX71 microscope (Olympus America Inc., Center Valley, Pa.) and, for the acquisition of high-quality images, using TCS SP5 multi-photon laser scanning confocal microscope.
# Midi-GAGR attenuated neurite atrophy caused by free reactive radicals. It is now shown herein that midi-GAGR protect neurons from the death caused by free radical insults. The extent to which midi-GAGR protects the primary culture of rodent cortical neurons from 4HNE and H2O2 was determined. In addition to the radicals, amyloid β peptide (Aβ42) was also tested. Aβ42 peptide is a major causative factor that causes oxidative stress and neuron death. Mouse cortical neurons (E17, DIV5) were treated with 10 μM 4HNE (24 h), 50 μM H2O2 (24 h), or 2 μM Aβ42 peptide (48 h) after the treatment of the neurons with vehicle (H2O), midi-GAGR (1 μM), dextran (1 μM), alginate (1 μM), LA-GAGR (0.1 μM), or HA-GAGR (0.01 μM) for 24 h. The concentrations of 4HNE, H2O2, and Aβ42 peptide were chosen according to their patho-physiological concentrations. The concentrations of LA-GAGR and HA-GAGR were chosen because, within the same volume, the total numbers of sugar units in the polysaccharides at the concentrations are close to that of 1 μM midi-GAGR. The viability of neurons was assessed using LIVE/DEAD® Viability/Cytotoxicity Assay Kit in which membrane-permeant calcein AM is cleaved by esterase in live cells, thus yielding green fluorescence, and membrane-impermeant ethidium homodimer-1 stains the nucleic acids of plasma membrane-compromised cells with red fluorescence. The numbers of green (live) and red (dead) neurons in each condition were counted using Metamorph. Although the intensities of green fluorescent signals in neurons treated with either free radicals or Aβ42 peptide were weak, the neurons were included in the counting. About 8-9% of vehicle-treated neurons died during the process of live/dead cell assay (FIGS. 23A-23F, FIGS. 24A-24C).
substance,measurement,setting,value
dextran,6-OHDA-induced cell death,[1],did not
same,increase in levels of nuclear p-CREB,[2],not significantly increased
same,percent of neuron death,[3]; then 2 μM Aβ42 peptide 48 h,did not decrease
same,percent of neuron death,[3]; then 50 μM H2O2 24 h,did not reduce

# — patent US11197885B2, “Collagen enhancing agent made from low acyl gellan gum, methods of making and methods of using the same” (The University of Toledo, priority 2015, dated 2021)
